Results from patent publication US20240390284A1, “IONIZABLE LIPIDS” (BRISTOL-MYERS SQUIBB COMPANY, priority 2023, published 2024).

Legend:
HEK293 FT cells = assay: Cas9 mRNA/sgRNA LNP gene editing, amplicon sequencing indel percentage (CRISPR-DAV); type: cell-based; conditions: LNP formulation dosed at 20 uL into 5,000 HEK293 FT cells, four day incubation
Experimental: (§1) Lipid nanoparticles (LNPs) were generated by rapid mixing. A mixture containing ionizable lipid, DSPC, cholesterol, and DMG-PEG at a molar ratio of 45:10:44:1, respectively, in ethanol was mixed with an aqueous sample containing Cas9 mRNA and synthetic sgRNA in 100 mM sodium acetate. Molar fractions were maintained for each formulation while varying the ionizable lipid. After formulation, particles immediately neutralized by dilution into Phosphate Buffered Saline (PBS). LNP size was determined using a Wyatt Plate Reader III with default settings.
(§2) Particles were functionally tested using amplicon sequencing. For testing, each formulation was dosed at 20 uL into 5,000 HEK293 FT or Jurkat cells. After a four day incubation cells were lysed and the locus of interested was amplified with PCR primers. These PCR products are then prepared for sequencing and sequenced on a MiSeq. The sequencing data is then processed and analyzed using CRISPR-DAV, which outputs indel percentages. (Table 1) For general reference, see Xuning Wang, Charles Tilford, Isaac Neuhaus, Gabe Mintier, Qi Guo, John N Feder, Stefan Kirov, CRISPR-DAV: CRISPR NGS data analysis and visualization pipeline, Bioinformatics, Volume 33, Issue 23, December 012017, Pages 3811-3812.

Jurkat cells = assay: as above; type: cell-based; conditions: LNP formulation dosed at 20 uL into 5,000 Jurkat cells, four day incubation
Experimental: as §1, §2

[1] = LNP size (average radius), Wyatt Plate Reader III; type: physicochemical; conditions: LNP of ionizable lipid:DSPC:cholesterol:DMG-PEG 45:10:44:1 with Cas9 mRNA and sgRNA, 0.087 mg/ml each
Experimental: as §1

SMILES | Indel % rep1 HEK293 FT (HEK293 FT cells) | Indel % rep2 Hek (HEK293 FT cells) | Indel % rep1 Jurkat (Jurkat cells) | Indel % rep2 Jurkat (Jurkat cells) | average Radius (nm) rep1 [1] | average Radius (nm) rep2 [1]
CCCCCC=CCC=CCCCCCCCC1OC(CCN(C)C)OC1CCCCCCCCCCCCCCCCC (stereo in doubt) [Lipid 10, (2-{4-[(8Z,11Z)-heptadeca-8,11-dien-1-yl]-5-heptadecyl-1,3-dioxolan-2-yl}ethyl)dimethylamine] | 51.22% | 63.9% | 1.75% | 1.04% | 177.3 nm | 129.475 nm
CCCCCCCC/C=C/CCCCCCCC1OC(CCN(C)C)OC1CCCCCCC/C=C/CCCCCCCC (stereo not drawn) [Lipid 2, (2-{4,5-Bis [(8E)-heptadec-8-en-1-yl]-1,3-dioxolan-2-yl}ethyl)dimethylamine] | 16.5% | 41.5% | 0.15% | 0.09% | 142.825 nm | 136.875 nm
CCCCCCCC/C=C\CCCCCCCC1OC(CCN(C)C)OC1CCCCCCC/C=C\CCCCCCCC (stereo not drawn) [Lipid 3, (2-{4,5-Bis [(8Z)-heptadec-8-en-1-yl]-1,3-dioxolan-2-yl}ethyl)dimethylamine] | 92.23% | 90.92% | 77.31% | 66.37% | 92.55 nm | 91.525 nm
CCCCC/C=C\C/C=C\CCCCCCCC1OC(CCN(C)C)OC1CCCCCCCCCCCCCCCCC (stereo not drawn) [Lipid 4, (2-{4-[(8Z,11Z)-heptadeca-8,11-dien-1-yl]-5-heptadecyl-1,3-dioxolan-2-yl}ethyl)dimethylamine] | 53.08% | 62.46% | 34.09% | 19.69% | 153.05 nm | 150.55 nm
CCCCC/C=C\C/C=C\CCCC1OC(CCN(C)C)OC1CCC/C=C\C/C=C\CCCCC (stereo not drawn) [Lipid 5, {2-[4,5-Bis-((4Z,7Z)-trideca-4,7-dienyl)-[1,3]dioxolan-2-yl]-ethyl}-dimethyl-amine] | 0.09% | 0.12% | 0.11% | 0.1% | 94.25 nm | 90.275 nm
CCCCC/C=C\C/C=C\CCCCCC1OC(CCN(C)C)OC1CCCCC/C=C\C/C=C\CCCCC (stereo not drawn) [Lipid 6, (2-{4,5-Bis [(6Z,9Z)-pentadeca-6,9-dien-1-yl]-1,3-dioxolan-2-yl}ethyl)dimethylamine] | 30.63% | 8.87% | 13.16% | 18.09% | 98.825 nm | 91.175 nm
CCCCCCCC/C=C/CCCCCCCC1OC(CCN(C)C)OC1CCCCCCCCCCCCCCCCC (stereo not drawn) [Lipid 7, (2-{4-[(8E)-heptadec-8-en-1-yl]-5-heptadecyl-1,3-dioxolan-2-yl}ethyl)dimethylamine] | 2.58% | 2.29% | 0.06% | 0.02% | 116 nm | 124.85 nm
CCCCCCCC/C=C\CCCCCCCC1OC(CCN(C)C)OC1CCCCCCCCCCCCCCCCC (stereo not drawn) [Lipid 8, (2-{4-[(8Z)-Heptadec-8-en-1-yl]-5-heptadecyl-1,3-dioxolan-2-yl}ethyl)dimethylamine] | 67.32% | 74.04% | 2.26% | 0.37% | 135.075 nm | 146.35 nm
CCCCC/C=C/C/C=C/CCCCCCCC1OC(CCN(C)C)OC1CCCCCCC/C=C/C/C=C/CCCCC (stereo not drawn) [Lipid 9, (2-{4,5-Bis [(8E,11E)-heptadeca-8,11-dien-1-yl]-1,3-dioxolan-2-yl}ethyl)dimethylamine] | 84.41% | 66.39% | 15.29% | 10% | 105 nm | 101.525 nm
CCCCC/C=C\C/C=C\CCCCCCCC1OC(CCCN(C)C)OC1CCCCCCC/C=C\C/C=C\CCCCC (stereo not drawn) [Lipid 11] | 93.59% | 95.87% | 70.3% | 65.07% | 122.675 nm | 109.475 nm
